Experiments:
[1] = test system: Enteropathogenic E. coli (EPEC) strain E2348/69; experiment: Growth curve of antibiotic resistant EPEC with gentamicin and Fe complex; format: cell-based, Escherichia coli; settings: for rate of growth relative to gentamicin alone: gentamicin 1.25 μM and FeQ 10 to 100 μM
Protocol: The impact on the growth curve of antibiotic resistant Enteropathogenic E. coli (EPEC) strain E2348/69 (genotype Wild Type EPEC O17:H6) when grown in the presence of (i) gentamicin (1.25 μM), (ii) Fe-Tyr (100 μM), (iii) gentamicin (1.25 μM) and Fe-Tyr (1.25 μM), and (iv) a control with no gentamicin or Fe-Tyr present was determined.
The impact on the growth curve of antibiotic resistant Enteropathogenic E. coli (EPEC) strain E2348/69 (genotype Wild Type EPEC O17:H6) when grown in the presence of a fixed concentration of gentamicin (1.25 μM) and an increasing concentration of FeQ versus the strain grown in the presence of only FeQ or only gentamicin, was determined.
The impact on the growth curve of antibiotic resistant Enteropathogenic E. coli (EPEC) strain E2348/69 (genotype Wild Type EPEC O17:H6) when grown in the presence of a fixed concentration of gentamicin (1.25 μM) and an increasing concentration of FeDOPA versus the strain grown in the presence of only FeDOPA or only gentamicin, was determined.

[2] = test system: PAO-1 strains of Pseudomonas aeruginosa; experiment: Biofilm formation on contact lenses (ESEM); format: cell-based; settings: FeQ 340 μM in LB; 37° C.; 24 hours
Protocol: To investigate biofilm formation on the contact lens, clinically determined PAO-1 strains of Pseudomonas aeruginosa were incubated with the lenses in either Luria-Bertani Media (LB) or LB with a final concentration of 340 μM FeQ at 37° C. for 24 hours in a non-shaking incubator. The lenses were then washed 6 times with PBS+0.05% Tween, before being stored overnight in PBS+0.05% Tween. In preparation for the ESEM, formaldehyde was added to a final concentration of 1% and incubated for 10 minutes in order to inactivate the bacteria. The lenses were then washed 4 times with PBS+0.05% Tween, and immediately before analysis the lenses were washed a further two times with distilled water.

[3] = test system: Enteropathogenic E. coli (EPEC) E2348/69; experiment: Crystal violet assay of attachment to plastic wells; format: cell-based, Escherichia coli; settings: FeQ 100 μM; 48 hours at 37° C.
Protocol: Enteropathogenic E. coli (EPEC) E2348/69 were grown in wells for 48 hours at 37° C. in the presence of FeQ (100 μM), and in the absence of FeQ (as control). After 48 hours, the wells were washed in order to remove suspended cells. Crystal violet was then added to each well. The wells were then washed to remove excess dye. A mixture of acetone/ethanol was then added to the wells to re-suspend any cells attached to the plastic surface of the wells, and dissolve any dye present. The presence of dye in each well was then quantified by measuring the O.D. at 570 nm.
Enteropathogenic E. coli (EPEC) E2348/69 were grown in wells for 48 hours at 37° C. in the presence of FeDOPA (10-250 μM), and in the absence of FeDOPA (as control). After 48 hours, the wells were washed in order to remove suspended cells. Crystal violet was then added to each well. The wells were then washed to remove excess dye. A mixture of acetone/ethanol was then added to the wells to re-suspend any cells attached to the plastic surface of the wells, and dissolve any dye present. The presence of dye in each well was then quantified by measuring the O.D. at 570 nm.

## O=C1[O][Fe]23([O]C(=O)[C@]4(C[C@@H](O)[C@H](O)[C@H](O)C4)[O]2)([O]C(=O)[C@]2(C[C@@H](O)[C@H](O)[C@H](O)C2)[O]3)[O][C@@]12C[C@@H](O)[C@H](O)[C@H](O)C2 [FeQ, a complex of quinic acid with Fe III]
[1]; FeQ alone, 10 μM to 100 μM
  growth rate: did not impact the growth rate
[1]
  rate of growth relative to gentamicin alone: inhibited
[1]; listed as Fe-QA
  rate of growth relative to gentamicin alone: loses its resistance
[2]
  biofilm formation on contact lens (ESEM): inhibits biofilm formation
[3]
  attachment of EPEC cells to plastic well surface and biofilm formation (crystal violet, O.D. 570 nm): little or no attachment of bacterial cells to the surface and no biofilm formation

— patent publication US10327423B2, “Antimicrobial compounds and compositions, and uses thereof” (Akeso Biomedical, Inc., priority 2014, dated 2019)
